Results from patent US8986946B2, “Real-time method for the detection of viable micro-organisms” (Nederlandse Organisatie Voor …, priority 2007, dated 2015).

What was measured:
[1] = system: Staphylococcus aureus ATCC 6538; test: Real-time viability assay, uptake of the phototautomeric compound followed by fluorescence; assay type: cell-based; details: for rise in fluorescence after addition of the compound, viable vs nonviable cells: 50 μM compound, 100 mM potassium phosphate buffer pH 2, added at t=20 seconds; for uptake by bacteria: 50 μM compound in 100 mM potassium phosphate buffer pH 2 (FIG. 6)
Protocol: (§1) A solution of 100 μl containing 50 μM compound in 100 mM potassium phosphate buffer pH 7 is used for recording the excitation and emission wavelengths in a Tecan microplate fluorometer. The ratio of emission intensity at pH 7.5 and 1 as well as the ratio of emission intensity at pH 7 and 2 (indicated by the asterisk) was recorded with 100 μl solution containing 50 μM compound in 100 mM potassium phosphate buffer pH 2 or 7 in a Tecan microplate fluorometer at optimal excitation wavelength. Uptake of compounds by viable and nonviable (heat-inactivated for 5 minutes at 95° C.) Staphylococcus aureus ATCC 6538 and Sachromyces serervisiae ATCC 9763 cells is real-time monitored in a Tecan microplate fluorometer at optimal excitation and emission wavelengths. A solution of 50 μM compound in 100 mM potassium phosphate buffer pH2 was added to 100 μl cell suspensions at t=20 seconds, uptake of compound was monitored for 180 seconds.
(§2) A solution of 100 μl containing 50 μM o-hydroxycinnamic acid, 100 mM potassium phosphate buffer pH 2, was added at t=20 seconds, as indicated by the arrow.
(§3) Typical real-time viability assay. Staphylococcus aureus strain ATCC 6538 is cultured overnight at 100 RPM at 37° C. in 10-ml of a rich trypticase soy broth (TSB) medium. A culture volume of 5 ml is centrifuged at 2000 RPM for 10 min and resuspended in 2 ml of physiological salt solution (peptone, 0.9% NaCl) followed by an OD600 measurement. A culture suspension of 1 ml is heat-inactivated by incubation at 95° C. for 5 min. (nonviable control cell suspension). A volume of 100 μl of a viable and a nonviable cell suspension is pipetted in separate wells of a polystyrene 96-well, flat-bottom microtiter plate. Subsequently, fluorescence emission kinetics (excitation wavelength 290 nm; emission wavelength 402 nm) are monitored for 500 seconds with a time interval of 200 ms, number of reads 5. […] Hereafter, the fluorescence signal decays on a minute time-scale as a result of the loss of membrane integrity or cell viability. […] From 60.2 seconds the signal will remain constant as the membrane is permeable in nonviable cells allowing quenching of fluorescence by acidification of the intracellular environment.

[2] = system: Saccharomyces cerevisiae ATCC 9763; test: as above; assay type: cell-based; details: for uptake by yeast: 50 μM compound in 100 mM potassium phosphate buffer pH 2 (FIG. 6)
Protocol: as §1, §2
Real-time viability assay for various micro-organisms. Bacterial and yeast strains were cultured overnight at 37° C. at 100 RPM in 10-ml of a rich trypticase soy broth (TSB) medium. A culture volume of 5 ml is centrifuged at 2000 RPM for 10 min and resuspended in 2 ml of physiological salt solution (peptone, 0.9% NaCl) followed by an OD600 measurement. The yeast strains include Candida albicans ATCC 10231, Saccharomyces cereuisiae ATCC9763 and the bacterial strains include A Staphylococcus aureus strain ATCC 6538, Enterobacter cloacae LMG 2783, Escherichia coli ATCC 10536, Bacillus subtilis DSM618 and Pseudomonas aeruginosa ATCC27853. The assay is carried out as specified above for Staphylococcus aureus. […] Accordingly, quantification of the number of viable cells of the yeast and other fungal strains should occur on the basis of increase of fluorescence over the measured period of time.

[3] = system: yeast (and other fungal) strains: Candida albicans ATCC 10231, Saccharomyces cereuisiae ATCC9763; test: Real-time viability assay for various micro-organisms (yeast strains); assay type: cell-based, Saccharomyces cerevisiae; details: 100 mM potassium phosphate buffer pH 2
Protocol: as §3, with “environment. Real-time viability assay for various micro-organisms. Bacterial and yeast strains were cultured overnight at 37° C. at 100 RPM in 10-ml of a rich trypticase soy broth (TSB) medium. A culture volume of 5 ml is centrifuged at 2000 RPM for 10 min and resuspended in 2 ml of physiological salt solution (peptone, 0.9% NaCl) followed by an OD600 measurement. The yeast strains include Candida albicans ATCC 10231, Saccharomyces cereuisiae ATCC9763 and the bacterial strains include A Staphylococcus aureus strain ATCC 6538, Enterobacter cloacae LMG 2783, Escherichia coli ATCC 10536, Bacillus subtilis DSM618 and Pseudomonas aeruginosa ATCC27853. The assay is carried out as specified above for Staphylococcus aureus. […] Accordingly, quantification of the number of viable cells of the yeast and other fungal strains should occur on the basis of increase of fluorescence over the measured period of time.” for “environment.”

[4] = system: Saccharomyces cerevisiae ATCC 9763; test: Real-time viability assay, uptake of the phototautomeric compound followed by fluorescence; assay type: cell-based; details: 2 mM salicylic acid, pH 2

## O=C(O)C=Cc1ccccc1O [o-hydroxycinnamic acid]
[1]
  rise in fluorescence after addition of the compound, viable vs nonviable cells: only observed for viable Staphylococcus aureus cells
[2]
  uptake by yeast: hardly taken up by yeast

## O=C(O)c1ccc2ccccc2c1O [1H-2NA, 1-hydroxy-2-naphtoic acid]
[1]
  uptake by bacteria: taken up by both bacteria and yeast
[2]
  uptake by yeast: taken up by both bacteria and yeast
[3]
  accumulation of the compound by yeast (and other fungal) strains: relatively slowly
  decay of fluorescent signal in yeast (and other fungal) strains: no decay of fluorescent signal

## O=C(O)c1ccccc1O [salicylic acid]
[1]
  uptake by bacteria: taken up by both bacteria and yeast
[1]; 2 mM salicylic acid, 100 mM potassium phosphate buffer pH 2
  time constant of the acidification process: 0.005 s⁻¹
[1]; 100 μl of 2 mM salicylic acid, 100 mM potassium phosphate buffer pH 2, injected at 60 seconds
  time scale of the rapid rise in fluorescence (transfer from the extracellular to the intracellular medium): < 200 ms
[1]; stationary culture, 2 mM salicylic acid, 100 mM potassium phosphate buffer pH 2
  uptake of salicylic acid by the bacteria (time): within seconds
[2]
  uptake by yeast: taken up by both bacteria and yeast
[3]
  accumulation of the compound by yeast (and other fungal) strains: relatively slowly
  decay of fluorescent signal in yeast (and other fungal) strains: no decay of fluorescent signal
[4]
  permeability of the cell membrane to the compound, compared with bacteria: less-permeable

## O=C(O)c1c(O)ccc2ccccc12 [2H-1NA, 2-hydroxy-1-naphtoic acid]
[3]
  accumulation of the compound by yeast (and other fungal) strains: relatively slowly
  decay of fluorescent signal in yeast (and other fungal) strains: no decay of fluorescent signal

## Nc1ccc(O)c(C(=O)O)c1 [5-amino salicylic acid]
[2]
  uptake by yeast: hardly taken up by yeast

## Cn1c(=O)n(C)c2cc(C(=O)O)c(N)cc21 [6-amino-1,3-dimethyl-2-oxo-2,3-dihydro-1H-benzoimidazole-5-carboxylic acid]
[2]; 50 μM compound, 100 mM potassium phosphate buffer pH 2, added at t=20 seconds
  rise in fluorescence after addition of the compound, viable vs nonviable cells: only observed for viable Saccharomyces cereuisiae cells

## Nc1ccc(C(=O)O)c(O)c1 [4-amino salicylic acid]
[2]
  uptake by yeast: hardly taken up by yeast

## Nc1cc2ccccc2cc1C(=O)O [3-amino-2-napthoic acid]
[1]
  uptake by bacteria: taken up by both bacteria and yeast
[2]
  uptake by yeast: taken up by both bacteria and yeast

## O=C(O)c1ccc(O)cc1O [4-hydroxy salicylic acid]
[2]
  uptake by yeast: hardly taken up by yeast

## O=C(O)c1cc2oc3ccccc3c2cc1O [S350729]
[1]
  uptake by bacteria: taken up by both bacteria and yeast
[2]
  uptake by yeast: taken up by both bacteria and yeast

## O=C(O)c1cc(O)ccc1O [gentisic acid, 2,5-dihydroxybenzoic acid]
[1]
  rise in fluorescence after addition of the compound, viable vs nonviable cells: only observed for viable Staphylococcus aureus cells
